Measurements reported in patent US12691101B2, “Compound and method for preventing or treating of respiratory diseases comprising the same as an active ingredient” (YONSEI UNIVERSITY, UNIVERSITY - INDUSTRY FOUNDATION (UIF), priority 2019, dated 2026).

How the values were obtained:
[1] = target: T1, human wild-type (WT)-pendrin (Homo sapiens, UniProt O43511); test: Pendrin-mediated Cl^−/SCN^− exchange activity in CHO-K1 cells; assay type: cell-based
T1 construct: expressed in transfected cells
T1 sequence (O43511 1-780): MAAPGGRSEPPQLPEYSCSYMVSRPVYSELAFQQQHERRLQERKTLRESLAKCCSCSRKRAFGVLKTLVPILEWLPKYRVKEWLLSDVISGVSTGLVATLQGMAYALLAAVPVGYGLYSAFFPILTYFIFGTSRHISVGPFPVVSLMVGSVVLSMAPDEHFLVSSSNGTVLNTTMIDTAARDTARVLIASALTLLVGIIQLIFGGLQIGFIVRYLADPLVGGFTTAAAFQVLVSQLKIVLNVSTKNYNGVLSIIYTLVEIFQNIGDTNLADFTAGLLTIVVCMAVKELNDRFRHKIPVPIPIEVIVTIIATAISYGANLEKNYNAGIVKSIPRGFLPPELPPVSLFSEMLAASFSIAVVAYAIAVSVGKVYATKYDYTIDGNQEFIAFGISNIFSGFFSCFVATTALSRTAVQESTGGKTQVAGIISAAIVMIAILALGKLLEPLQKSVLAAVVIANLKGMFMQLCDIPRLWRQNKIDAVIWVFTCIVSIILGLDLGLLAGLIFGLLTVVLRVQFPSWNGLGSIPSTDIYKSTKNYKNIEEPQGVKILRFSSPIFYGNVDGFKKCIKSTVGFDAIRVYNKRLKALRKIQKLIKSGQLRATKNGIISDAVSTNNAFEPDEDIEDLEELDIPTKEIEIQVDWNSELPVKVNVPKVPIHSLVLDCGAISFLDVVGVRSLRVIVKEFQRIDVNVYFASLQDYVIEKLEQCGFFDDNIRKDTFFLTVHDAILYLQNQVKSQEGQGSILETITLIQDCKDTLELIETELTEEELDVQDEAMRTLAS
Procedure: For measurement of Cl^−/SCN^− exchange activity, YFP fluorescence was measured in pendrin and halide sensor YFP expressing CHO-K1 cells. To measure the Cl^−/SCN^− exchange activity, HEPES buffer solution was changed to NaSCN-substituted HEPES buffer solution (140 mM NaSCN, 5 mM KCl, 1 mM MgCl2, 1 mM CaCl2, 10 mM glucose and 10 mM HEPES (pH 7.4)) for generation of an SCN^− gradient driving SCN^− inflow by pendrin. The YFP fluorescence change by SCN^− inflow was monitored using FLUOstar Omega microplate reader (BMG Labtech) and MARS data analysis software (BMG Labtech).

SLC26A7 = target: T2, SLC26A7 (Homo sapiens, UniProt Q8TE54); test: Cl^−/HCO3^− exchange in CHO-K1 cells expressing SLC26A7; assay type: cell-based
T2 construct: expressed in transfected cells; host or cells: CHO-K1
Procedure: (A) The inhibition of mouse pendrin (mPDS)-mediated Cl^−/I^− exchange activity by F56 was measured in CHO-K1 cells (mean±S.E., n=5). The indicated concentration of F56 was pretreated for 10 minutes. (B) Summary of dose-response for inhibition of the human pendrin (hPDS)-mediated (closed circle, FIG. (a), C) and mPDS-mediated (open circle) Cl^−/I^− exchange activity. (C-F) Representative traces of intracellular pH in CHO-K1 cells expressing SLC26A3, SLC26A6, SLC26A7 and SLC26A9 were shown. The application of Cl^− free solution induced intracellular alkalization by Cl^−/HCO3^− exchange. The indicated concentration of F56 was pretreated for 10 minutes. (G) the effect of F56 (100 μM) on the CFTR chloride channel activity was measured in FRT cells expressing human CFTR. The CFTR current was activated by 20 μM forskolin and was inhibited by 10 μM CFTRinh-172. (H) The effect of F56 (100 μM) on the AN01 chloride channel activity was measured in FRT cells expressing human AN01. Before 10 minutes prior to AN01 activation by 100 μM ATP, F56 was added. (Right) Peak current summary (mean±S.E., n=3). (I) The effect of F56 on the hERG (Kv11.1) potassium channel activity was measured in HEK293T cells expressing human Kv11.1 (mean±S.E., n=4). […] (J) The effect of F56 on the 5-HT2A channel activity was measured in FRT cells expressing human 5-HT2A (mean±S.E., n=4). […]

HNE cells = test: IL-4 and IL-13-induced goblet cell hyperplasia in HNE cells, PAS staining; assay type: cell-based, human; conditions: pretreatment
Procedure: (A) The MUC5AC mRNA expression level was determined at the indicated time after treatment of F56 ([…]) in IL-4 (10 ng/ml)-treated HNE cells (mean±S.E., n=4). (B) Periodic acid-Schiff (PAS) staining showing goblet cell hyperplasia of IL-4 and IL-13 (10 ng/ml)-treated HNE cells in presence or absence of F56 ([…]) at Day 7. (C) Measurement of the total volume of ASL and fluid meniscus in HNE cells expressing wild-type (wt) or mutant (mt) PDS. The HNE cells were treated with IL-4 (10 ng/ml, 48 hours) in presence or absence of […]. (D) Representative image of a transwell insert having normal HNE cells. Arrows indicate the fluid meniscus of HNE cells treated with IL-4 (10 ng/ml, 48 hours) in presence or absence of […] F56. (E) Representative protein expression result of pendrin in IL-4 and IL-13-treated HNE cells. (F) Measurement of the total volume of ASL and fluid meniscus. The HNE cells were treated with IL-13 (10 ng/ml, 48 hours) in presence or absence of 30 mM F56 (mean±S.E., n=3-4). * P<0.05, *** P<0.001. Size bar, 30 μm.
For evaluation of airway inflammation, left lung was fixed in 4% paraformaldehyde overnight and embedded in paraffin. […] The inflammation score showing the severity of bronchial inflammation was evaluated by 3 blind observers using a method reported conventionally. […]

T2 sequence (Q8TE54 whole entry, species assumed): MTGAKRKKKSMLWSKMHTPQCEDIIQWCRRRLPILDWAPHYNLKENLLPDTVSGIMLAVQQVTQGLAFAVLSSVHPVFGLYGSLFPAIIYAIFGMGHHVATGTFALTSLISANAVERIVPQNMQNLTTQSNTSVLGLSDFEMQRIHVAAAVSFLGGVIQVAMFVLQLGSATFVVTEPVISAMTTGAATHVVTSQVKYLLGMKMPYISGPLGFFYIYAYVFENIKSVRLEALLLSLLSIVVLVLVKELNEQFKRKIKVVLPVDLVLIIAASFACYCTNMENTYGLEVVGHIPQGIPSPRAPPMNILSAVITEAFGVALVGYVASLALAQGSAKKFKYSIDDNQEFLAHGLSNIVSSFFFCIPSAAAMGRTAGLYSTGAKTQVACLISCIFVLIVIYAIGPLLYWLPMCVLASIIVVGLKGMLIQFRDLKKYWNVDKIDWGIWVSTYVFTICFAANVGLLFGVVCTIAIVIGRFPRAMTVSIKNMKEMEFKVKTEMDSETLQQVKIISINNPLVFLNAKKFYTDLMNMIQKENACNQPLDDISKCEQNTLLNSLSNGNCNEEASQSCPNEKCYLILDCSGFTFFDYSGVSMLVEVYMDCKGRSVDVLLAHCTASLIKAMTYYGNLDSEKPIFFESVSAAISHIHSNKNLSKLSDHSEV

effect on SLC26A7 Cl^−/HCO3^− exchange (SLC26A7) | chemical stability (Stability statements) | Compound | inhibition of pendrin Cl^−/SCN^− exchange activity [1] | IL-4 and IL-13-induced goblet cell hyperplasia (HNE cells)
 |  | CC(C)(C)c1ccc(C2=NC(=Cc3ccc[nH]3)C(=O)O2)cc1 [F10, 4-((1H-pyrrol-2-yl)methylene)-2-(4-(tert-butyl)phenyl)oxazol-5 (4H)-one] | strongly inhibit | 
did not affect | chemically stable | CC(C)(C)c1ccc(C2=NC(=Cc3cccs3)C(=O)O2)cc1 [F56, 2-(4-(tert-butyl)phenyl)-4-(thiophen-2-ylmethylene)oxazol-5(4H)-one] | strongly inhibited | significantly reduced
